Source: ChEMBL document CHEMBL5365457, “Selective HDAC3 Inhibitors with Potent In Vivo Antitumor Efficacy against Triple-Negative Breast Cancer” (J Med Chem, 2023)
Activity calls are given as the source filed them. The rule behind the calls is not given here.

Columns and labels:
Histone deacetylase 2 = Histone deacetylase 2 (Homo sapiens, UniProt Q92769); assay: Inhibition of human recombinant HDAC2 at 1 uM incubated for 30 mins by fluorescence based microplate assay relative to control
MCF7 = assay: Cytotoxicity against human MCF7 cells assessed as inhibition of cell growth incubated for 72 hrs by MTT assay; assay type: functional, cell-based; conditions: MCF7, 72 h
4T1 [1] = assay: Cytotoxicity against mouse 4T1 cells assessed as inhibition of cell growth incubated for 72 hrs by MTT assay; assay type: functional, cell-based; conditions: 4T1, 72 h
[2] = Cytotoxicity against human MCF-10A cells assessed as inhibition of cell growth incubated for 72 hrs by MTT assay; assay type: toxicity, cell-based
[3] = Half life in Wistar rat at 5 mg/kg, ip measured upto 24 hrs by HPLC analysis; assay type: ADME, organism-based; conditions: in vivo
[4] = Cmax in Wistar rat at 5 mg/kg, ip measured upto 24 hrs by HPLC analysis; assay type: ADME, organism-based; set-up: time < 24 hrs, dose 5 mg/kg, route ip; conditions: in vivo
[5] = AUC (0 to t) in Wistar rat at 5 mg/kg, ip measured upto 24 hrs by HPLC analysis; assay type: ADME, organism-based; set-up: dose 5 mg/kg, time < 24 hrs, route ip; conditions: in vivo
[6] = AUC (0 to infinity) in Wistar rat at 15 mg/kg, ip measured upto 24 hrs by HPLC analysis; assay type: ADME, organism-based; set-up: dose 15 mg/kg, time < 24 hrs, route ip; conditions: in vivo
[7] = MRT (0 to infinity) in Wistar rat at 15 mg/kg, ip measured upto 24 hrs by HPLC analysis; assay type: ADME, organism-based; conditions: in vivo
[8] = Apparent oral clearance in Wistar rat at 5 mg/kg, ip measured upto 24 hrs by HPLC analysis; assay type: ADME, organism-based; conditions: in vivo
[9] = Apparent oral clearance in Wistar rat at 15 mg/kg, ip measured upto 24 hrs by HPLC analysis; assay type: ADME, organism-based; conditions: in vivo
[10] = AUMC (0 to infinity) in Wistar rat at 5 mg/kg, ip measured upto 24 hrs by HPLC analysis; assay type: ADME, organism-based; conditions: in vivo
Histone deacetylase 1 = Histone deacetylase 1 (Homo sapiens, UniProt Q13547); assay: Inhibition of human recombinant HDAC1 incubated for 15 mins by fluorescence based microplate analysis
Sequence of Histone deacetylase 1 (Q13547 whole entry): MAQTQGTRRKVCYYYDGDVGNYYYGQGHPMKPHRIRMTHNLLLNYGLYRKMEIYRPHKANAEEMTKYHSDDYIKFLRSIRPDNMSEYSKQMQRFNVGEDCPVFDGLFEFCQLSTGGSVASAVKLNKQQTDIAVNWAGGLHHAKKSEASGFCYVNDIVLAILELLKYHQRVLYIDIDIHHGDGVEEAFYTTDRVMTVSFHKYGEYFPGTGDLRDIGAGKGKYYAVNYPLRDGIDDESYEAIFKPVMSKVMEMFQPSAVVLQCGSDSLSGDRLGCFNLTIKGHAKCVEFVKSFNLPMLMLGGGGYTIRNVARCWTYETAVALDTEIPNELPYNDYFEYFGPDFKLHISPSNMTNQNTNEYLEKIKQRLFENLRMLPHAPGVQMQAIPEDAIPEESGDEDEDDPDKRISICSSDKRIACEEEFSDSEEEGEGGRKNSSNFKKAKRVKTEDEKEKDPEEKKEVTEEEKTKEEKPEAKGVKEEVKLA

[11] = Selectivity ratio of IC50 for cytotoxicity against human MCF-10A cells assessed as inhibition of cell growth to IC50 for cytotoxicity against human MCF7 cells assessed as inhibition of cell growth; assay type: toxicity, cell-based; conditions: MCF-10A cells versus MCF7 cells, read-out: Ratio IC50
[12] = Selectivity ratio of IC50 for cytotoxicity against human HCEC cells assessed as inhibition of cell growth to IC50 for cytotoxicity against human MDA-MB-231 cells assessed as inhibition of cell growth; assay type: toxicity, cell-based; conditions: HCEC cells versus MDA-MB-231 cells, read-out: Ratio IC50
4T1 [13] = assay: Induction of apoptosis in mouse 4T1 cells assessed as increase cytochrome c level by Western blot analysis; assay type: functional, cell-based; conditions: dose 1.0 µM
4T1 [14] = assay: Induction of apoptosis in mouse 4T1 cells assessed as increase caspase 3/7 level at 1 uM by Western blot analysis; assay type: functional, cell-based
4T1 [15] = assay: Induction of apoptosis in mouse 4T1 cells at 550 nM incubated for 72 hrs by annexin/PI staining based flow cytometry analysis (reference value: 1.35%); assay type: functional
4T1 [16] = assay: Induction of apoptosis in mouse 4T1 cells at 38.6 uM incubated for 72 hrs by annexin/PI staining based flow cytometry analysis (reference value: 1.35%); assay type: functional
4T1 [17] = assay: Induction of apoptosis in mouse 4T1 cells assessed as nuclear fragmentation incubated for 72 hrs by acridine orange staining based analysis; assay type: functional, cell-based
4T1 [18] = assay: Induction of apoptosis in mouse 4T1 cells assessed as cell shrinkage incubated for 72 hrs by acridine orange staining based analysis; assay type: functional
MDA-MB-231 = assay: Cytotoxicity against wild type human MDA-MB-231 cells assessed as reduction in cell viability incubated for 72 hrs in presence of oxaliplatin by MTT assay; assay type: functional, cell-based; conditions: MDA-MB-231, 72 h
[19] = Metabolic stability in rat liver microsome assessed as intrinsic clearance preincubated for 5 mins followed by NADPH addition and measured after 60 mins by HPLC analysis; assay type: ADME; conditions: liver microsomes, time 65 min, read-out: CLH
4T1 [20] = assay: Antitumor activity against mouse 4T1 cells implanted in BALB/c mouse assessed as reduction in tumor volume at 15 mg/kg, ip administered 5 times a week for 21 days (reference value: 52.05+/-12.35 mm3); assay type: functional; conditions: time 21 day
[21] = Toxicity against BALB/c mouse implanted with mouse 4T1 cells assessed as body weight gain at 5 to 15 mg/kg,ip administered 5 times a week for 21 days; assay type: organism-based; conditions: in vivo, 504 h, dose 5-15 mg/kg, time 21 day
4T1 [22] = assay: Antitumor activity against mouse 4T1 cells implanted in BALB/c mouse assessed as tumor growth inhibition at 15 mg/kg, ip measured on day 21; assay type: functional; conditions: 4T1, 504 h, time 21 day, read-out: TGI
Mus musculus [23] = assay: Induction of ROS generation in mouse implanted with mouse 4T1 cells at 15 mg/kg, ip administered for 21 days by DCFH-DA staining based microscopic analysis; assay type: functional, organism-based; conditions: time 21.0 day
Mus musculus [24] = assay: Induction of ROS generation in mouse implanted with mouse 4T1 cells at 5 mg/kg, ip administered for 21 days by DCFH-DA staining based microscopic analysis; assay type: functional, organism-based; conditions: time 21.0 day
[25] = Toxicity in BALB/c mouse implanted with mouse 4T1 cells assessed as heart damage at 5 to 15 mg/kg, ip measured after 21 days by H and E staining based assay; assay type: organism-based; conditions: in vivo, 504 h, dose 5-15 mg/kg, time 21 day
[26] = Toxicity in BALB/c mouse implanted with mouse 4T1 cells assessed as liver damage at 5 to 15 mg/kg, ip measured after 21 days by H and E staining based assay; assay type: organism-based; conditions: in vivo, 504 h, dose 5-15 mg/kg, time 21 day
[27] = Toxicity in BALB/c mouse implanted with mouse 4T1 cells assessed as kidney damage at 5 to 15 mg/kg, ip measured after 21 days by H and E staining based assay; assay type: organism-based; conditions: in vivo, 504 h, dose 5-15 mg/kg, time 21 day
[28] = Toxicity in BALB/c mouse implanted with mouse 4T1 cells assessed as effect on cell shape in liver at 5 to 15 mg/kg, ip measured after 21 days by H and E staining based assay; assay type: organism-based; conditions: in vivo, 504 h, dose 5-15 mg/kg, time 21 day
[29] = Toxicity in BALB/c mouse implanted with mouse 4T1 cells assessed as liver fibrosis at 5 to 15 mg/kg, ip measured after 21 days; assay type: organism-based; conditions: in vivo, 504 h, dose 5-15 mg/kg, time 21 day
[30] = Toxicity in BALB/c mouse implanted with mouse 4T1 cells assessed as kidney fibrosis at 5 to 15 mg/kg, ip measured after 21 days; assay type: organism-based; conditions: in vivo, 504 h, dose 5-15 mg/kg, time 21 day
4T1 [31] = assay: Antitumor activity against mouse 4T1 cells implanted in BALB/c mouse assessed as reduction in lung metastasis at 5 to 15 mg/kg, ip measured for 7 days by H and E staining based assay; assay type: functional; set-up: scale not given: the % may be the effect or the level left; conditions: dose 5-15 mg/kg, time 7 day
4T1 [32] = assay: In-vivo inhibition of HDAC3 in BALB/c mouse implanted with mouse 4T1 cells assessed as increase in acetylation of tubulin level at 5 to 15 mg/kg, ip by Western blot analysis; assay type: functional, organism-based; conditions: dose 5-15 mg/kg
4T1 [33] = assay: Antitumor activity against mouse 4T1 cells implanted in BALB/c mouse assessed as upregulation of cytochrome c level in tumor at 5 to 15 mg/kg, ip by Western blot analysis; assay type: functional, organism-based; conditions: dose 5-15 mg/kg
4T1 [34] = assay: Antitumor activity against mouse 4T1 cells implanted in BALB/c mouse assessed as reduction in Ki-67 protein level in tumor at 5 to 15 mg/kg, ip by Western blot analysis; assay type: functional, organism-based; conditions: dose 5-15 mg/kg

Sequence of Histone deacetylase 2 (Q92769 whole entry): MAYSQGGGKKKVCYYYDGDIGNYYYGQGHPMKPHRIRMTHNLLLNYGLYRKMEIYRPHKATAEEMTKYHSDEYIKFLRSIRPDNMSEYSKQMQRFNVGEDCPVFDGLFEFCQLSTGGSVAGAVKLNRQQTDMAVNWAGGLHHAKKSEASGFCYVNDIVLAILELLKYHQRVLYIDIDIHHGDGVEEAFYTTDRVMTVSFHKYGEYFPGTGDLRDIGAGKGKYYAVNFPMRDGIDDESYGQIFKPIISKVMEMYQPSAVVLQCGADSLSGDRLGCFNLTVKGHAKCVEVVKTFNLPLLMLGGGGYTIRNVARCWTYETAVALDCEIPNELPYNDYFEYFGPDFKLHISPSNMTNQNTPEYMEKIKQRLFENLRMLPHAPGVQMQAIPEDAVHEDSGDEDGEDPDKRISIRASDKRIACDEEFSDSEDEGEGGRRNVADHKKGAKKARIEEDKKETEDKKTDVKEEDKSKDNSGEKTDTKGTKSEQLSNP

inhibition (Histone deacetylase 2): < 17%
half-life [3]: 7.19 h
Cmax [4]: 1110 ng/mL
AUC(0-t) at 24 h [5]: 4050 ng·h/mL
AUC(0-inf) [6]: 20600 ng·h/mL
MRT inf [7]: 6.57 h
CL/F [8]: 1.15 (mg/kg)/(ug/ml).hr
CL/F [9]: 1.3 (mg/kg)/(ug/ml).hr
AUMC [10]: 29.08 ug/ml.hr^2
IC50 (Histone deacetylase 1): 1980 nM
microsomal CLint [19]: 36.2 µL/min/mg
Structure (SMILES): CCCNNC(=O)c1cnc(NCc2ccc(OC)cc2)cn1
IC50 (MCF7): 950 nM
IC50 (4T1 [1]): 550 nM
IC50 at 72 h [2]: 212000 nM
selectivity ratio [11]: 385
selectivity ratio [12]: 286
Activity (4T1 [13]): Dose-Dependent Effect
Activity (4T1 [14]): Active
Activity (4T1 [15]): 63.4%
Activity (4T1 [16]): 82.7%
Activity (4T1 [17]): Active
Activity (4T1 [18]): Active
IC50 (MDA-MB-231): 403 nM
Activity (4T1 [20]): 101.23 mm3
Activity [21]: Non-Toxic
inhibition in vivo at 15 mg/kg (4T1 [22]): 97.9%
Activity (Mus musculus [23]): Active
Activity (Mus musculus [24]): Active
Activity [25]: Non-Toxic
Activity [26]: Non-Toxic
Activity [27]: Non-Toxic
Activity [28]: Non-Toxic
Activity [29]: Non-Toxic
Activity [30]: Non-Toxic
Activity (4T1 [31]): ~90%
inhibition (4T1 [32]): Active
Activity (4T1 [33]): Active
Activity (4T1 [34]): Active
